# Where “and” joins values, the source holds several entries; their conditions need not be identical. Identical values can stand only once. Ends that are not written are not given here.
# What was measured:
# IDE [1] = biological target: T1, IDE (Homo sapiens, UniProt P14735); assay: biochemical; conditions: for Percent activity at 500 uM, Mean: N 4; for remaining activity at 500 µM: individual replicates, read-out: Percent activity at 500 uM, Replicate 1-4
# T1 construct: made in house; host or cells: bacteria
# T1 sequence (P14735 1-1019): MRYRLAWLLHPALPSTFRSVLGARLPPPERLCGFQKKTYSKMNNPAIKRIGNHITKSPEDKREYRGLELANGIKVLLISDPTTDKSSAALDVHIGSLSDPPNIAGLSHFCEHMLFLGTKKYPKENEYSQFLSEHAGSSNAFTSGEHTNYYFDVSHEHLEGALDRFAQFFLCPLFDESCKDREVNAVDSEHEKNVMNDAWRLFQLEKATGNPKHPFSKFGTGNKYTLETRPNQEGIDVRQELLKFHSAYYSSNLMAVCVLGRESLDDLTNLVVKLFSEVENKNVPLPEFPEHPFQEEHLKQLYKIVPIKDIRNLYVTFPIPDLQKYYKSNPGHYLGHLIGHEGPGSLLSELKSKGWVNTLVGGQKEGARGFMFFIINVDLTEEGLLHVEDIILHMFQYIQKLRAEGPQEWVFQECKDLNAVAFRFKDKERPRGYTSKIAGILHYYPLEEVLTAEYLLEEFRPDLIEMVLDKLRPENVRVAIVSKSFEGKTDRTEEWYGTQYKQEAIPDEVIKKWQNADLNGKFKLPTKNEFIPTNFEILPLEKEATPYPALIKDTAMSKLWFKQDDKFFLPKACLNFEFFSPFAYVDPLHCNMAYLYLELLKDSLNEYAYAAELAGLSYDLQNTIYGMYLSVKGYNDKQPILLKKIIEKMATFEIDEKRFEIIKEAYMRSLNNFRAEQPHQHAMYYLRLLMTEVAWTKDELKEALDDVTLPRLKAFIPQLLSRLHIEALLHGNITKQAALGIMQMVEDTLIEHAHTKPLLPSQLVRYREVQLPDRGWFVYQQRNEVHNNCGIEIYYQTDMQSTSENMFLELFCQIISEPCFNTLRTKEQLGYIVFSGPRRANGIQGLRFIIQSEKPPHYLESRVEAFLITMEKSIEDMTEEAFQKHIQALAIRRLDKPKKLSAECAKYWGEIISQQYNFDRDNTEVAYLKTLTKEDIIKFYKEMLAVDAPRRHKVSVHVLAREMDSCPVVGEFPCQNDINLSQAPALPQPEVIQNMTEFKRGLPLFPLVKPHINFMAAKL
# Description: The six selected peptide sequences (C7C-1, C7C-2, 12–1, 12–2, 12–3 and 12–4) were synthesized, together with a variety of modifications, yielding a total of 25 peptides (Table 1). […] Other modifications included N-terminal acetylation and C-terminal amidation, included to mimic the charge state of the peptides when incorporated in the phage coat protein (Table 1).
# (§1) IDE activity was quantified by monitoring the degradation of Mca-[…](Dnp) (FRET1, 5 μM), fluoresceinated and biotinylated amyloid ß-protein (FAßB; 500 nM) or recombinant human insulin (50 nM) in PBS supplemented with 0.05% BSA. […] In vitro activity assays incorporated recombinant human IDE (1 nM) purified from bacteria. For quantitation of insulin degradation in primary murine skin fibroblasts, cells (1 x 10^5/well) were plated in 96-well plates and maintained in DMEM supplemented with 10% fetal bovine serum (FBS), 2mM glutamine, penicillin and streptomycin. After addition of insulin (10 nM or 100 nM), samples of conditioned medium were removed daily and quickly frozen, then insulin levels were quantified in parallel by ELISA according to manufacturer’s recommendations (Crystal Chem, Downers Grove, IL, USA). Assessment of the activity of P12-3A against a variety of matrix-metalloproteases was conducted using the Matrix Metalloproteinase (MMP) Inhibitor Profiling Kit, Fluorometric RED (Enzo Life Sciences, Inc., Farmingdale, NY, USA) according to manufacturer’s recommendations using the broad-spectrum MMP inhibitor, NNGH, as a positive control.
# IDE [2] = biological target: T1, IDE; assay: biochemical; conditions: for percent decrease in insulin detected by ELISA, Replicate 1 / percent decrease in insulin detected by ELISA, Replicate 2 / percent decrease in insulin detected by ELISA, Replicate 3 / percent decrease in insulin detected by ELISA, Replicate 4 / percent decrease in insulin detected by ELISA, Mean: peptide at 10 uM, insulin 100 nM, normalized to DMSO-only and no-enzyme controls; for percent decrease in insulin detected by ELISA, Mean: N=4
# From the text: The six selected peptide sequences (C7C-1, C7C-2, 12–1, 12–2, 12–3 and 12–4) were synthesized, together with a variety of modifications, yielding a total of 25 peptides (Table 1). For the 12-mer peptides, we synthesized variants of the parent peptides truncated at one or both termini, to test whether the entire sequence was necessary or not, in the hope that shorter, and thus less expensive, sequences might be effective. Other modifications included N-terminal acetylation and C-terminal amidation, included to mimic the charge state of the peptides when incorporated in the phage coat protein (Table 1). To assess the extent to which these peptide sequences inhibit IDE, we quantified their potency in protease activity assays using recombinant human IDE and two different substrates: FRET1, a fluorogenic peptide, and recombinant human insulin.
# IDE activity was quantified by monitoring the degradation of Mca-[…](Dnp) (FRET1, 5 μM), fluoresceinated and biotinylated amyloid ß-protein (FAßB; 500 nM) or recombinant human insulin (50 nM) in PBS supplemented with 0.05% BSA. FRET1 degradation was measured by changes in fluorescence (λex = 340 nm, λem = 420 nm); FAßB degradation was monitored by fluorescence polarization (λex = 488 nm, λem = 525 nm), as described; and insulin degradation was quantified by ELISA. In vitro activity assays incorporated recombinant human IDE (1 nM) purified from bacteria. For quantitation of insulin degradation in primary murine skin fibroblasts, cells (1 x 10^5/well) were plated in 96-well plates and maintained in DMEM supplemented with 10% fetal bovine serum (FBS), 2mM glutamine, penicillin and streptomycin. After addition of insulin (10 nM or 100 nM), samples of conditioned medium were removed daily and quickly frozen, then insulin levels were quantified in parallel by ELISA according to manufacturer’s recommendations (Crystal Chem, Downers Grove, IL, USA). Assessment of the activity of P12-3A against a variety of matrix-metalloproteases was conducted using the Matrix Metalloproteinase (MMP) Inhibitor Profiling Kit, Fluorometric RED (Enzo Life Sciences, Inc., Farmingdale, NY, USA) according to manufacturer’s recommendations using the broad-spectrum MMP inhibitor, NNGH, as a positive control.
# IDE [3] = biological target: T1, IDE; assay: Vulnerability of peptides to degradation by IDE: 0 vs 4 h pre-incubation, then FRET1 assay; assay type: biochemical; conditions: for Ki: Cheng-Prusoff from IC50, FRET1 KM 10 uM, substrate 5 uM; for IC50: FRET1 assay
# Description: as §1
# [4] = initial test, percent of initial velocity relative to DMSO-only controls
# [5] = 0-hr incubation, Cmpd 0.12207 uM, relative to DMSO-only controls, individual runs
# [6] = 0-hr incubation, Cmpd 0.488281 uM, relative to DMSO-only controls, individual runs
# [7] = 0-hr incubation, Cmpd 1.95312 uM, relative to DMSO-only controls, individual runs
# [8] = 0-hr incubation, Cmpd 7.8125 uM, relative to DMSO-only controls, individual runs
# [9] = 0-hr incubation, Cmpd 31.25 uM, relative to DMSO-only controls, individual runs
# [10] = 0-hr incubation, Cmpd 125 uM, relative to DMSO-only controls, individual runs
# [11] = 0-hr incubation, Cmpd 500 uM, relative to DMSO-only controls, individual runs
# [12] = 4-hr incubation, Cmpd 0.12207 uM, relative to DMSO-only controls, individual runs
# [13] = 4-hr incubation, Cmpd 0.488281 uM, relative to DMSO-only controls, individual runs
# [14] = 4-hr incubation, Cmpd 1.95312 uM, relative to DMSO-only controls, individual runs
# [15] = 4-hr incubation, Cmpd 7.8125 uM, relative to DMSO-only controls, individual runs
# [16] = 4-hr incubation, Cmpd 31.25 uM, relative to DMSO-only controls, individual runs
# [17] = 4-hr incubation, Cmpd 125 uM, relative to DMSO-only controls, individual runs
# [18] = 4-hr incubation, Cmpd 500 uM, relative to DMSO-only controls, individual runs
Substance,"Percent activity at 500 uM, Mean (IDE [1]; [4])","Percent activity at 500 uM, Mean (IDE [1]; judged as IC50 <100 uM?)","percent decrease in insulin detected by ELISA, Replicate 1 (IDE [2])","percent decrease in insulin detected by ELISA, Replicate 2 (IDE [2])","percent decrease in insulin detected by ELISA, Replicate 3 (IDE [2])","percent decrease in insulin detected by ELISA, Replicate 4 (IDE [2])","percent decrease in insulin detected by ELISA, Mean (IDE [2])",Percent Activity (normalized initial velocity of FRET1 hydrolysis) (IDE [3]; [5]),Percent Activity (normalized initial velocity of FRET1 hydrolysis) (IDE [3]; [6]),Percent Activity (normalized initial velocity of FRET1 hydrolysis) (IDE [3]; [7]),Percent Activity (normalized initial velocity of FRET1 hydrolysis) (IDE [3]; [8]),Percent Activity (normalized initial velocity of FRET1 hydrolysis) (IDE [3]; [9]),Percent Activity (normalized initial velocity of FRET1 hydrolysis) (IDE [3]; [10]),Percent Activity (normalized initial velocity of FRET1 hydrolysis) (IDE [3]; [11]),Percent Activity (normalized initial velocity of FRET1 hydrolysis) (IDE [3]; [12]),Percent Activity (normalized initial velocity of FRET1 hydrolysis) (IDE [3]; [13]),Percent Activity (normalized initial velocity of FRET1 hydrolysis) (IDE [3]; [14]),Percent Activity (normalized initial velocity of FRET1 hydrolysis) (IDE [3]; [15]),Percent Activity (normalized initial velocity of FRET1 hydrolysis) (IDE [3]; [16]),Percent Activity (normalized initial velocity of FRET1 hydrolysis) (IDE [3]; [17]),also measured
LPWCTPHC [P12-3D],3.0%,48.5%,77.7%,71.2%,96.7%,88.5%,83.5%,96.4522% and 96.759% and 99.5993%,102.379% and 100.264% and 105.198%,104.101% and 99.4736% and 108.303%,98.6262% and 96.0429% and 106.212%,88.0717% and 83.2988% and 94.9104%,50.9238% and 50.5662% and 58.9795%,18.0015% and 16.3891% and 26.5742%,81.980% and 88.388%,82.055% and 87.340%,95.585% and 92.840%,94.853% and 93.557%,102.800% and 95.281%,90.299% and 99.861%,Percent Activity (normalized initial velocity of FRET1 hydrolysis) (IDE [3]; [18]): 61.928% and 59.590%
Ac-FRQWWQPS [P12-1C],–,–,–,–,–,–,–,–,–,–,–,–,–,–,–,–,–,–,–,–,"IC50 (IDE [1]; dose-response, FRET1, read-out: IC50s, Mean): 208 µM; IC50 <500 uM? (IDE [1]; initial test at 500 uM): YES; remaining activity at 500 µM (IDE [1]; [4]): 12.6%; remaining activity at 500 µM (IDE [1]; judged as IC50 <100 uM?): 33.8%; Ki (IDE [1]; substrate FRET1 5 μM, Ki from IC50 with the Cheng-Prusoff equation, read-out: Ki FRET1): 139 ± 21 µM; IC50 (IDE [2]; from initial test at 10 uM using insulin (100 nM), read-out: IC50 (summary of results, listed in Table 1)): > 10 µM; Ki (IDE [2]; substrate recombinant human insulin 50 nM, Ki from IC50 with the Cheng-Prusoff equation): > 10 µM; Ki (IDE [3]; 0-hr incubation): 139 µM; Ki (IDE [3]; 4-hr incubation): 327 µM; remaining activity at 0.12207 µM (IDE [3]; 4 h, 4-hr incubation, Cmpd 0.12207 uM, relative to DMSO-only controls, individual runs, read-out: Percent Activity (normalized initial velocity of FRET1 hydrolysis)): 100%; remaining activity at 0.488281 µM (IDE [3]; 4 h, 4-hr incubation, Cmpd 0.488281 uM, relative to DMSO-only controls, individual runs, read-out: Percent Activity (normalized initial velocity of FRET1 hydrolysis)): 104%; remaining activity at 1.95312 µM (IDE [3]; 4 h, 4-hr incubation, Cmpd 1.95312 uM, relative to DMSO-only controls, individual runs, read-out: Percent Activity (normalized initial velocity of FRET1 hydrolysis)): 105%; remaining activity at 7.8125 µM (IDE [3]; 4 h, 4-hr incubation, Cmpd 7.8125 uM, relative to DMSO-only controls, individual runs, read-out: Percent Activity (normalized initial velocity of FRET1 hydrolysis)): 104%; remaining activity at 31.25 µM (IDE [3]; 4 h, 4-hr incubation, Cmpd 31.25 uM, relative to DMSO-only controls, individual runs, read-out: Percent Activity (normalized initial velocity of FRET1 hydrolysis)): 78.2%; remaining activity at 125 µM (IDE [3]; 4 h, 4-hr incubation, Cmpd 125 uM, relative to DMSO-only controls, individual runs, read-out: Percent Activity (normalized initial velocity of FRET1 hydrolysis)): 24.3%; remaining activity at 500 µM (IDE [3]; 4 h, 4-hr incubation, Cmpd 500 uM, relative to DMSO-only controls, individual runs, read-out: Percent Activity (normalized initial velocity of FRET1 hydrolysis)): 2.79%; IC50 (IDE [3]; 0-hr incubation (immediately after combining enzyme and peptide), individual runs, read-out: IC50s): 150 µM and 254 µM and 220 µM; IC50 (IDE [3]; 4-hr incubation, individual replicates, read-out: IC50s): 482 µM and 500 µM; IC50 (IDE [3]; 4-hr incubation, mean of 2 replicates, read-out: IC50s, Mean): 491 µM"
WCYPHCVT [P12-3C],6.4%,29.8%,111.9%,145.7%,105.6%,114.6%,119.5%,87.1275% and 89.107% and 97.5567%,88.274% and 92.2277% and 96.9846%,91.5093% and 89.6687% and 99.5643%,83.3253% and 88.0997% and 90.5388%,61.5604% and 65.1463% and 71.7432%,22.5624% and 28.2506% and 30.6967%,2.879% and 4.537% and 8.696%,96.239% and 102.101%,100.910% and 100.775%,100.923% and 102.486%,97.345% and 105.750%,94.256% and 100.607%,90.993% and 91.075%,Percent Activity (normalized initial velocity of FRET1 hydrolysis) (IDE [3]; [18]): 24.626% and 23.530%

# — paper PMC5814047, “Peptidic inhibitors of insulin-degrading enzyme with potential for dermatological applications discovered via phage display” (PLoS ONE, 2018)
